Measured values reported in publication doi:10.1101/2025.03.30.646192v1 (biorxiv, 2025).

Molecular target: T1, D2R (D2 dopamine receptor; HA-hDRD2-SmBiT) (Homo sapiens, UniProt P14416)
Experiment: competition with [3H]-raclopride, membranes
Conditions: not given

T1 sequence (P14416 whole entry): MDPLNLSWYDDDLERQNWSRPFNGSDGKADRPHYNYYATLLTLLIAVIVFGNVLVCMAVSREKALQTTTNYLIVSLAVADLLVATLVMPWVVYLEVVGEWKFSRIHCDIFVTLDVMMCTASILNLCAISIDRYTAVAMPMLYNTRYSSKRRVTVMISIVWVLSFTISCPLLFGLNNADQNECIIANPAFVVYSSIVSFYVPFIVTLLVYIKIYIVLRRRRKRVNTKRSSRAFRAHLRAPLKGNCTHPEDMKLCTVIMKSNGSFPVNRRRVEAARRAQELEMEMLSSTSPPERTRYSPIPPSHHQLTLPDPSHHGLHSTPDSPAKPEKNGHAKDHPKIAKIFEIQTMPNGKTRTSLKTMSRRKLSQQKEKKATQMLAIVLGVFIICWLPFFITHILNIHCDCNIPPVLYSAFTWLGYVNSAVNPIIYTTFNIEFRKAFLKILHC

SMILES | Ki
NC[C@H](O)c1ccc(O)cc1 [octopamine] | 347 ± 60.1 µM
CNC[C@H](O)c1cccc(O)c1 [phenhyleprine] | 15.1 µM
CNCC(O)c1ccc(O)cc1 (stereo not drawn) [synephrine] | 87.1 µM
NCC(O)c1ccccc1 (stereo not drawn) [hydroxyphenethylamine] | 195 µM
CNC[C@H](O)c1ccc(O)c(O)c1 [adrenaline] | 7.08 µM
NCC(O)c1cccc(O)c1 (stereo not drawn) [norphenylephrine] | 17 µM
CNCCc1ccc(O)c(O)c1 [methyldopamine] | 0.0603 µM
CNCCc1ccccc1 [n-methyl-phenetylamine] | 17 µM

Same assay, conditions: pH 7.4, RT, 10 mM MgCl2, orthosteric

SMILES | Ki
NCCc1ccccc1 [phenetylamine] | 4.73 ± 0.52 pKi

Molecular target: T1, D2R (D2 dopamine receptor; HA-hDRD2-SmBiT)
Experiment: competition with [3H]-raclopride, membranes
Conditions: not given
Remark: another data set of the same source

SMILES | Ki
NC[C@H](O)c1ccc(O)c(O)c1 [noradrenaline] | 9.55 µM
NCCc1ccc(O)cc1 [p-tyramine] | 77.6 µM
NCCc1cccc(O)c1 [m-tyramine] | 1.86 µM
